In publication PMC11816990, “New Terpenoids and Lignans from Phyllanthus acidus Fruits with Antioxidant Activity” (Foods, 2025):

Columns and labels:
[1] = ABTS+ radical scavenging test; assay type: biochemical; conditions: for Inhibition Rate (%): ABTS^+ inhibition, Concentration 250 μM
Experimental: The ABTS^+ radical scavenging test was conducted as reported previously, and was slightly modified. Specifically, the solvent was replaced with DMSO due to the high volatility of 80% methanol. Trolox was used as positive control. The scavenging activities of phenolic compounds 3, 4, and 10–17 were calculated based on the percentage of ABTS^+ radical scavenged using the equation:Inhibition rate (%) = (A blank − A sample)/A blank
IC50 values were calculated according to the Reed and Muench method.

[2] = test system: five tumor cell lines; set-up: method as in PMID 17315965; conditions: 40 μM; compound from Aspidopterys obcordate; cited from earlier work
[3] = test system: A549; set-up: method as in doi:10.1016/j.tet.2021.132224; conditions: compounds derived from Phyllanthus acidus; cited from earlier work
[4] = test system: ECA109; set-up: method as in doi:10.1016/j.tetlet.2013.06.082; conditions: compound isolated from Phyllanthus flexuosus; cited from earlier work
[5] = test system: HONE; set-up: method as in doi:10.1016/j.tet.2021.132224; conditions: compounds derived from Phyllanthus acidus; cited from earlier work
[6] = test system: Hela cells; set-up: method as in doi:10.1016/j.tet.2021.132224; conditions: compounds derived from Phyllanthus acidus; cited from earlier work
[7] = compound from Liriope muscari and Senecio scandens, versus Vitamin C; cited from earlier work
[8] = set-up: method as in PMID 22158590; conditions: compound from Cordia sinensis, versus BHA; cited from earlier work

| IC50 ([1]; ABTS^+ radical scavenging) [µM] | IC50 ([1]; Table S1, ABTS+ inhibition) [µM] | Compound | Inhibition Rate (%) [1] [%] | further results |
| --- | --- | --- | --- | --- |
| 348 ± 12.2 | 348 ± 12.2 | COc1cc([C@H]2Oc3c(OC)cc(CCCOC(C)=O)cc3[C@@H]2CO)ccc1O [Compound 10, 3-[(2S,3R)-2-(4-hydroxy-3-methoxyphenyl)-3-(hydroxymethyl)-7-methoxy-2,3-dihydro-1-benzofuran-5-yl]propyl acetate] | 46.46 ± 0.83 |  |
| 204 ± 4.7 | 204 ± 4.66 | COc1cc([C@@H]2OC[C@H]3[C@@H]2CO[C@H]3c2ccc(O)c(OC)c2)ccc1O [Compound 13, (-)-pinoresinol] | 60.12 ± 0.19 | antioxidant activities [7]: comparable to that of Vitamin C |
| 362 ± 8.4 | 362 ± 8.39 | COc1cc(C(O)C(CO)Oc2ccc(CCCOC3OC(CO)C(O)C(O)C3O)cc2OC)ccc1O [Compound 14, 4,7,9-trihydroxy-3,3′-dimethoxy-8-O-4′-neolignan-9′-O-β-D-glucopyranoside] | 39.02 ± 1.35 |  |
| 176 ± 2.1 | 176 ± 2.07 | Cc1c(C)c2c(c(C)c1O)CCC(C)(C(=O)O)O2 (stereo not drawn) [Trolox, reference compound] | 57.26 ± 1.38 |  |

Second part, the compound before the results:

| Compound | IC50 ([1]; ABTS^+ radical scavenging) [µM] | IC50 ([1]; Table S1, ABTS+ inhibition) [µM] | Inhibition Rate (%) [1] [%] | further results |
| --- | --- | --- | --- | --- |
| COc1cc(CCCOC(C)=O)cc2c1O[C@@H](c1ccc(O)cc1)[C@@H]2CO [Compound 3, 3-[(2R,3S)-2-(4-hydroxyphenyl)-3-(hydroxymethyl)-7-methoxy-2,3-dihydro-1-benzofuran-5-yl]propyl acetate] |  |  | 31.16 ± 0.38 |  |
| CC(=O)OCCCc1ccc2c(c1)[C@H](CO)[C@@H](c1ccc(O)cc1)O2 [Compound 4, 3-[(2S,3R)-2-(4-hydroxyphenyl)-3-(hydroxymethyl)-2,3-dihydro-1-benzofuran-5-yl] propyl acetate] |  |  | 23.71 ± 0.37 |  |
| C=Cc1c(C)c(O)cc2c1CC[C@@H]1C(C)(C)[C@H](O)C(=O)C[C@@]21C [Compound 5, aspidoptoid D] |  |  |  | cytotoxic activity against five tumor cell lines [2]: no significant cytotoxic activity |
| C=Cc1c(C)c(O)cc2c1CC[C@@H]1C(C)(C)[C@H](O)[C@H](O)C[C@@]21C [Compound 6, cleistanthol] |  |  |  | cytotoxic activity against A549 [3]: weaker cytotoxic activity; cytotoxic activity against ECA109 [4]: weak cytotoxic activity; cytotoxic activity against HONE [5]: weaker cytotoxic activity; cytotoxic activity against Hela cells [6]: weaker cytotoxic activity |
| C=Cc1c(C)c(O)cc2c1CC[C@@H]1C(C)(C)[C@H](O)CC[C@@]21C [Compound 7, spruceanol] |  |  |  | cytotoxic activity against A549 [3]: weaker cytotoxic activity; cytotoxic activity against HONE [5]: weaker cytotoxic activity; cytotoxic activity against Hela cells [6]: weaker cytotoxic activity |
| COc1cc([C@H]2OC[C@@H]3[C@H]2CO[C@H]3c2ccc(O)c(OC)c2)ccc1O [Compound 12, (+) epipinoresinol] | 387 ± 8 | 387 ± 8.03 | 49.51 ± 1.60 |  |
| O=C(O)/C=C/c1ccc(O)c(O)c1 [Compound 15, trans-caffeic acid] | 232.9 ± 1.9 | 233 ± 1.92 | 49.40 ± 0.72 | DPPH radical scavenging activity [8]: better DPPH radical scavenging activity than BHA |
